How the values were obtained:
Format in all cases: cell-based
hTLR7 = biological target: T1, hTLR7 (Homo sapiens, UniProt Q9NYK1); assay: SEAP reporter assay for hTLR-7 activity (HEK-Blue hTLR7 cells); conditions: for EC50: ± SD, hTLR7 transfected HEK-Blue cells, Null subtracted, three independent measurements, 12 hours, read-out: EC50 TLR7
T1 construct: host or cells: HEK293 (HEK-Blue hTLR7)
T1 sequence (Q9NYK1 27-1049): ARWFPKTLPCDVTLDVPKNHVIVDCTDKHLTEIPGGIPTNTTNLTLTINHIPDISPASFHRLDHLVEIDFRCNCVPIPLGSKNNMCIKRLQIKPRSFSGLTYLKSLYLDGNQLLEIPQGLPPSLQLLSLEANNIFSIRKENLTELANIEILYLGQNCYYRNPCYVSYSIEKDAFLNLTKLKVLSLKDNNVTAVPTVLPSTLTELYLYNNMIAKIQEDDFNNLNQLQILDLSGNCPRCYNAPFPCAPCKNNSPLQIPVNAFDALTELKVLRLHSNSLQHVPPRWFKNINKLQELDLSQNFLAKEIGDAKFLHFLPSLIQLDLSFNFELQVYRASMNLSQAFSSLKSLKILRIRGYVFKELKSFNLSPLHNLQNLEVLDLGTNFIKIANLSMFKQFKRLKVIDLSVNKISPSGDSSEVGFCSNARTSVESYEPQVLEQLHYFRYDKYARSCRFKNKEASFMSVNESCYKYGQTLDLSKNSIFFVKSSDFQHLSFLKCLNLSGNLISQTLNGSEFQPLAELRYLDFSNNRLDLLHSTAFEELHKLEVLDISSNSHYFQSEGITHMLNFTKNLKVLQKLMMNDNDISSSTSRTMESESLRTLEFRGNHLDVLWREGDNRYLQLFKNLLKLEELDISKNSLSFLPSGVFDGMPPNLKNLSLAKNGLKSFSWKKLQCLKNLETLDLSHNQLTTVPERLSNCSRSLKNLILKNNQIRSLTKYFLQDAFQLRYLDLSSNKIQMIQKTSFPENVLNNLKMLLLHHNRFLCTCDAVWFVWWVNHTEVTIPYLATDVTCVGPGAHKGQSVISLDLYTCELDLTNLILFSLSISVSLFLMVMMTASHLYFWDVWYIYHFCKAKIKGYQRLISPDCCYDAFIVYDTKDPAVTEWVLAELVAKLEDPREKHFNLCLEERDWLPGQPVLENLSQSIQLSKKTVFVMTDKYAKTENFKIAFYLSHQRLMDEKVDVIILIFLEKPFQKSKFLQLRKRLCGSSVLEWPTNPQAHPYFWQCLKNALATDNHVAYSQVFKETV
Procedure: (§1) TLR activation induces NF-κB production and subsequent SEAP secretion, which is measured using HEK-Detection media (InvivoGen) containing a colorimetric substrate for SEAP (UV-Vis, 637 nm).
(§2) The experiments followed manufacturer protocol as follows: SEAP levels were measured via absorbance at 637 nm using HEK-Blue Detection cell culture medium (InvivoGen), which contains a SEAP-specific colorimetric substrate. Compound stock solutions were first diluted in sterile DMSO at a concentration of 10 mM. Lower concentrations were prepared by serial dilution of the initial 10 mM stock samples into sterile DMSO and these solutions (22 μL) were subsequently diluted into sterile H2O (198 μL) using a BioTek Precision XS pipetting system. HEK-Blue hTLR7, HEK-Blue hTLR8, Null 1−k, and Null 1 cell suspensions in sterile HEK-Blue Detection medium were prepared at a density of 220,000 cells per mL. Clear bottom, 96-well tissue culture treated plates (Corning) were seeded with hTLR7 and Null 1−k or hTLR8 and Null 1 cell suspensions (180 μL/well), after which 20 μL of the various sample concentrations in 10% v/v DMSO/H2O were added (20 μL) in quadruplicate wells to yield the desired testing concentration in 1% v/v DMSO cell suspension. Plates were incubated at 37° C. and 5% CO2 in the dark. Absorbance measurements were taken at 637 nm at 12 hours, 4 replicates per concentration point, per cell line (hTLR7, hTLR8, Null 1−k, Null 1). Three independent measurements on different days were performed for each analog.
(§3) Corresponding well absorbance values for each concentration tested were averaged with respect to days tested, and the average relative NF-κB induction (UV-Vis, 637 nm) of the null cell lines (Null 1-k or Null 1) were subtracted from the respective average TLR expressing cell line (hTLR7 or hTLR8) absorbance averages. […] The three independent, normalized averages for each analog were then pooled, and the data was fit using the Hill-Slope model (GraphPad Prism v7.0) using the non-linear fit from the [Agonist] vs. response—Variable Slope (four parameters) with a hill slope constrained to less than 3.

hTLR8 = biological target: T2, hTLR8 (Homo sapiens, UniProt Q9NR97); assay: SEAP reporter assay for hTLR-8 activity (HEK-Blue hTLR8 cells); conditions: for EC50: ± SD, hTLR8 transfected HEK-Blue cells, Null subtracted, three independent measurements, 12 hours, >100 = no activity observed at 100 μM, read-out: EC50 TLR8
T2 construct: host or cells: HEK293 (HEK-Blue hTLR8)
T2 sequence (Q9NR97 27-1041): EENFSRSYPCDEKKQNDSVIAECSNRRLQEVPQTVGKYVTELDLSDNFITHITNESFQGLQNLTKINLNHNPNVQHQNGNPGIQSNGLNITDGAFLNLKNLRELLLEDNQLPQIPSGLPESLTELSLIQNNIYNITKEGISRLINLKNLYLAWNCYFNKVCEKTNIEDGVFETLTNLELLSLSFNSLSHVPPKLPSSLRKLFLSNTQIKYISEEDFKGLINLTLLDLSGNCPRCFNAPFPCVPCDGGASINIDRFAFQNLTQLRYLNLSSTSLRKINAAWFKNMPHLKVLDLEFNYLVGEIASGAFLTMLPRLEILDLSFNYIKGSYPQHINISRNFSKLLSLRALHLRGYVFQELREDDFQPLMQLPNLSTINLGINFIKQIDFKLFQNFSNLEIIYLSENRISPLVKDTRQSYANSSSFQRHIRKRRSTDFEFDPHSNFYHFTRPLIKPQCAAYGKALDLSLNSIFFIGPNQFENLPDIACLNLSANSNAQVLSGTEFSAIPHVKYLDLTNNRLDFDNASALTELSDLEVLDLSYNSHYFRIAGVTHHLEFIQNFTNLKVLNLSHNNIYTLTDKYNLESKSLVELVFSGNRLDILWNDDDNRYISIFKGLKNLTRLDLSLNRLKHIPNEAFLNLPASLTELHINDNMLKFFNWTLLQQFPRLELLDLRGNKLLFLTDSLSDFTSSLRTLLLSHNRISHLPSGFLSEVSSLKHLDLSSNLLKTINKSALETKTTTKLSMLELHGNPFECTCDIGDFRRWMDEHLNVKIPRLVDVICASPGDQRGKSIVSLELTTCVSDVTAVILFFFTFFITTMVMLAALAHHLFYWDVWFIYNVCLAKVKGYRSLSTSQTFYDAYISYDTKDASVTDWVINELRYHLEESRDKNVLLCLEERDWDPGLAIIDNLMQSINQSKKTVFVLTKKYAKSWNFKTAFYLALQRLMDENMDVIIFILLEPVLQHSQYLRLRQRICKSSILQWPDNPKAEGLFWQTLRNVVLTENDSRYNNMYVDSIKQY
Procedure: as §1, §2, §3

[1] = test system: canine peripheral blood mononuclear cells (cPBMCs); assay: Cytokine production in canine PBMCs by ELISA (Example 2); conditions: for Cytokine IFNg / Cytokine IL-2 / Cytokine IL-6 / Cytokine IL-10 / Cytokine IL-12 / Cytokine TNFa: ± SD, 29 hours, ELISA, triplicate
Procedure: The imidazoquinolines were further screened for cytokine production in canine peripheral blood mononuclear cells (cPBMCs). […] TNFα and IL-12 were chosen as they are typically seen in a Th-1 cytokine response.
Peripheral blood from a healthy canine donor was obtained with appropriate informed consent of the owner and under approved institutional guidelines. Blood (8 mL per tube) was drawn via sterile venipuncture into a BD Vacutainer cell preparation tube containing sodium heparin (BD Biosciences). PBMCs were isolated within one hour following procurement by density gradient centrifugation according to the manufacturer protocol and resuspended to 2.22×10^6 cells/mL in sterile RPMI 1640 medium with L-glutamine (Gibco) supplemented with 100 U/mL penicillin, 100 μg/mL streptomycin (Corning) and 10% (v/v) heat-inactivated Fetalgro (RMBIO). Corning 3917, 96-well tissue culture treated plates were seeded with the PBMC suspension (180 μL/well), 20 μL of the serially diluted TLR agonists were added in triplicate to yield the desired concentrations in a 1% (v/v) DMSO cell suspension. Cells were incubated at 37° C. in 5% CO2 for 9 hours (FIGS. 3A-3D) or 29 hours (Table 2) after which supernatants were removed and frozen at −80° C. Cytokine secretion levels were measured by ELISA (Duoset, R&D Systems) according to the manufacturer protocol. Samples and standards (n=3) were thawed and plated onto a Maxisorp flat-bottom, 384-well plate (Thermo Scientific) using a BioTek Precision XS pipetting system. Cytokine concentrations were determined by a hyperbolic or four-parameter logistic non-linear regression of the recombinant standards and subsequent interpolation using Graphpad Prism 7.0.

Structure (SMILES)	EC50 (hTLR7)	EC50 (hTLR8)	Cytokine IFNg ([1]; 20 μM)	Cytokine IL-2 ([1]; 20 μM)	Cytokine IL-6 ([1]; 20 μM)	Cytokine IL-10 ([1]; 20 μM)	Cytokine IL-12 ([1]; 20 μM)	Cytokine TNFa ([1]; 20 μM)	cytokine induction (in words) [1]	IL-12 response (in words) ([1]; 20 μM)	TNFα response (in words) ([1]; 20 μM)	agonist for TLR7 receptor (in words) (hTLR7)	agonist for TLR8 receptor (in words) (hTLR8)
CCCCc1nc2c(N)nc3cc(C#N)ccc3c2n1CC(C)(C)O [Compound 12, 4-Amino-2-butyl-7-carbonitrile-1-(2-hydroxy-2-methylpropyl)-1H-imidazo[4,5-c]quinoline]	790 ± 230 nM	3900 ± 200 nM	12 ± 4 pg/mL	45 ± 22 pg/mL	290 ± 77 pg/mL	14 ± 3 pg/mL	418 ± 72 pg/mL	44 ± 10 pg/mL					
CCOCc1nc2c(N)nc3cc(C#N)ccc3c2n1CC(C)(C)O [Compound 13, 4-Amino-7-carbonitrile-2-(ethoxymethyl)-1-(2-hydroxy-2-methylpropyl)-1H-imidazo[4,5-c]quinoline]	3500 ± 700 nM	27000 ± 6000 nM	0.2 ± 0.4 pg/mL	46 ± 42 pg/mL	214 ± 69 pg/mL	6 ± 3 pg/mL	13 ± 3 pg/mL	80 ± 20 pg/mL					
CCCCc1nc2c(N)nc3cc(C#N)ccc3c2n1CC(C)C [Compound 10, 4-Amino-2-butyl-7-carbonitrile-1-(2-methylpropyl)-1H-imidazo[4,5-c]quinoline]	990 ± 400 nM	> 100000 nM	13 ± 5 pg/mL	60 ± 41 pg/mL	350 ± 95 pg/mL	37 ± 10 pg/mL	920 ± 170 pg/mL	10 ± 1 pg/mL					
CCCCc1nc2c(N)nc3cc(O)ccc3c2n1CC(C)C [Compound 14, 4-Amino-2-butyl-7-hydroxy-1-(2-methylpropyl)-1H-imidazo[4,5-c]quinoline]	73 ± 5 nM		9 ± 8 pg/mL	79 ± 19 pg/mL	330 ± 92 pg/mL	17 ± 3 pg/mL	102 ± 65 pg/mL	270 ± 70 - pg/mL	barely potentiates any cytokine induction	one of the lowest IL-12 responses	one of the highest TNFα responses		
CC(C)Cn1cnc2c(N)nc3ccccc3c21 [Compound 1, imiquimod, reference compound]	6800 ± 800 nM	25000 ± 3000 nM										agonists	agonists

Now from value to compound, other results behind:

EC50 (hTLR7)	EC50 (hTLR8)	Structure (SMILES)	Cytokine IFNg ([1]; 20 μM)	Cytokine IL-2 ([1]; 20 μM)	Cytokine IL-6 ([1]; 20 μM)	Cytokine IL-10 ([1]; 20 μM)	Cytokine IL-12 ([1]; 20 μM)	Cytokine TNFa ([1]; 20 μM)	cytokine induction (in words) [1]	IL-12 response (in words) ([1]; 20 μM)	TNFα response (in words) ([1]; 20 μM)	agonist for TLR7 receptor (in words) (hTLR7)	agonist for TLR8 receptor (in words) (hTLR8)
84 ± 7 nM	1500 ± 200 nM	CCCCc1nc2c(N)nc3cc(Cl)ccc3c2n1CC(C)(C)O [Compound 8, 4-Amino-2-butyl-7-chloro-1-(2-hydroxy-2-methylpropyl)-1H-imidazo[4,5-c]quinoline]	13 ± 10 pg/mL	55 ± 30 pg/mL	230 ± 44 pg/mL	7 ± 6 pg/mL	1700 ± 330 pg/mL	22 ± 4 pg/mL					
81 ± 9 nM	1700 ± 300 nM	CCCCc1nc2c(N)nc3cc(OC)ccc3c2n1CC(C)(C)O [Compound 5, 4-Amino-2-butyl-1-(2-hydroxy-2-methylpropyl)-7-methoxy-1H-imidazo[4,5-c]quinoline]	14.5 ± 6 pg/mL	82 ± 56 pg/mL	290 ± 63 pg/mL	14 ± 2 pg/mL	2000 ± 160 pg/mL	64 ± 12 pg/mL					
630 ± 30 nM	4900 ± 600 nM	CCOCc1nc2c(N)nc3cc(Cl)ccc3c2n1CC(C)(C)O [Compound 9, 4-Amino-7-chloro-2-(ethoxymethyl)-1-(2-hydroxy-2-methylpropyl)-1H-imidazo[4,5-c]quinoline]	16 ± 2 pg/mL	76 ± 59 pg/mL	320 ± 76 pg/mL	12 ± 3 pg/mL	1900 ± 130 pg/mL	70 ± 8 pg/mL					
